Measurements: publication PMC10939774 (Antiviral research, 2024)

Assays:
HBV = details: patients; ref Bogomolov et al., 2016; cited from earlier work
HepG2-NTCP cells = test: Cell viability by WST-8 assay in HepG2-NTCP cells; details: 10 μM, 7 days, absorbance 450 nm
HepG2.2.15-derived HBV = HepG2.2.15-derived HBV infection of HepG2-NTCP cells, HBsAg in culture medium; type: cell-based, hepatitis B virus; details: 10 μM, HBsAg on Day 12 post-infection
HBV genotype C = test: HBV infection of human primary hepatocytes; type: cell-based, hepatitis B virus; details: 10 μM virus treatment; day 12 after infection; P < 0.0001 vs Ctn
HepG2.2.15 cells [1] = details: 10 μM, 7 days of culture
HepG2.2.15 cells [2] = test: HBsAg production from HepG2.2.15 cells; type: cell-based, hepatitis B virus; details: 10 μM, 7 days of culture

Row | Compound | Improvement in clinical conditions and HBV DNA and HBsAg levels (HBV) | Cell viability, percentage of Ctn-treated cells (HepG2-NTCP cells) [%] | Effect on HBsAg level of pre-treatment of cells only (HepG2.2.15-derived HBV; HepG2-NTCP cells treated 24 hours before infection) | Effect on HBsAg level of post-treatment of infected cells only (HepG2.2.15-derived HBV; during 11 days of culture after washing) | HBV DNA in the culture medium of HBV-infected human primary hepatocytes (HBV genotype C) | HBeAg level in HBV-infected human primary hepatocytes (HBV genotype C) | Viability of treated HepG2.2.15 cells (HepG2.2.15 cells [1]) [%] | HBsAg level in the culture medium of HepG2.2.15 cells compared to Ctn-treated cells (HepG2.2.15 cells [2])
1 | myrcludex-B | limited improvement |  |  |  |  |  |  | 
2 | CC[C@H](C)[C@H](NC(=O)[C@H](CCCCN)NC(=O)[C@H](CCC(=O)O)NC(=O)[C@H](CCCCN)NC(=O)[C@H](CO)NC(=O)[C@H](CCCCN)NC(=O)[C@H](CCCNC(=N)N)NC(=O)[C@H](Cc1ccccc1)NC(=O)[C@H](Cc1ccccc1)NC(=O)[C@H](CC(=O)O)NC(=O)CNC(=O)[C@H](CC(C)C)NC(=O)[C@@H](N)CC(C)C)C(=O)NCC(=O)N[C@@H](CCCCN)C(=O)N[C@@H](CCC(=O)O)C(=O)N[C@@H](Cc1ccccc1)C(=O)N[C@@H](CCCCN)C(=O)N[C@@H](CCCNC(=N)N)C(=O)N[C@H](C(=O)N[C@H](C(=O)N[C@@H](CCC(N)=O)C(=O)N[C@@H](CCCNC(=N)N)C(=O)N[C@H](C(=O)N[C@@H](CCCCN)C(=O)N[C@@H](CC(=O)O)C(=O)N[C@@H](Cc1ccccc1)C(=O)N[C@@H](CC(C)C)C(=O)N[C@@H](CCCNC(=N)N)C(=O)N[C@@H](CC(N)=O)C(=O)N[C@@H](CC(C)C)C(=O)N[C@H](C(=O)N1CCC[C@H]1C(=O)N[C@@H](CCCNC(=N)N)C(=O)N[C@H](C(=O)N[C@@H](CCC(=O)O)C(=O)N[C@@H](CO)C(=O)O)[C@@H](C)O)C(C)C)[C@@H](C)CC)C(C)C)[C@@H](C)CC [LL-37] |  | 77.6 ± 6.9 | minimal | minimal | significant reductions | significant reductions | 88.6 | comparable
